Reference: patent US7407752B2, “Oligonucleotide complexes for use as anti-viral therapeutics” (priority 2003, dated 2008)
Where “and” joins values, the source holds several entries; their conditions need not be identical. Identical values can stand only once.

Key:
[1] = intravenous; cited from earlier work
[2] = tested on: HSV-1; assay: HSV-1 plaque reduction on Vero cells after incubation with TFO and ultraviolet-A radiation; conditions: for viral titer as percent of the unirradiated virus only control: 1 μM TFO
Experimental: Viral titers were determined by plaque counts on Vero cell monolayers.
3000 PFU/ml of HSV-1 were incubated with 1 μM TFO-3 (SEQ ID 2) at room temperature, N=5 replications per group. Viral killing (as measured by plaque-reduction) was effected by exposing the mixture to ultraviolet-A radiation for 0, 20 and 40 minutes at room temperature. HSV-1 titers were determined by plaque assay on Vero cells. […] The results were calculated as a percent of the unirradiated (0 min.) “virus only” control titers±SEM. Statistical comparisons were made between the “virus only” and “virus+TFO-3 (SEQ ID 2)” groups at each time point using an unpaired two-tailed Student's T-Test.
3000 PFU/ml of HSV-1 was incubated with 1 μM TFO-3 (SEQ ID 2) or a (scrambled) control oligonucleotide. Viral killing was affected by exposing the mixture to ultraviolet-A radiation for 40 min. Results are expressed as percent of the “virus only” control titers±SEM. Statistical comparisons were made to the “virus only” group using the two-tailed Student's T-Test.
HSV-1 was incubated with 1 μM TFO-3 (SEQ ID 2) with and without exposure to ultraviolet-A radiation for 40 minutes at room temperature. Results are expressed as mean viral titers±standard errors. Statistical comparisons were made using the two-tailed Student's T-Test.
All the groups were exposed to ultraviolet-A radiation for 40 minutes at room temperature. Results are expressed as mean viral titers ±standard error of the mean. Statistical comparisons were made using the two-tailed Mann-Whitney test for non-parametric data.

[3] = tested on: TG neurons; assay: Ex vivo delivery of TFO-3 to latently infected mouse TG; conditions: 42 micromolar, 1.5 hrs ex vivo
Experimental: Ex vivo delivery of TFOs was then performed by incubating latently infected mouse TG ex vivo for 1.5 hrs in a 42 micromolar solution of TFO-3.

[4] = tested on: TG neurons; assay: Movement of 32P-labeled TFO-3 into rat TG neuron cultures; type: cell-based
[5] = tested on: parent (control) reporter construct pGL3; assay: Luciferase reporter transcription inhibition, parent construct pGL3 in HEK-293; type: cell-based, human; conditions: HEK-293, 1 or 10 μM TFO, 24 hours, construct lacking HSV-1 target sequence
[6] = tested on: HSV-1 Target-3 reporter construct C2A; assay: Luciferase reporter transcription inhibition, construct C2A in HEK-293; type: cell-based, human; conditions: HEK-293, 1 or 10 μM TFO, 24 hours
[7] = tested on: HSV-1 LAT target sequence duplex; assay: Triplex formation in vitro (native polyacrylamide gel); type: binding
Experimental: The target sequence bound by TFO-3 (SEQ ID 2) yielded a relatively clean duplex when end-labeled with ^32P and allowed to anneal to its purine complement. One fmole […] [The absolute amount of target DNA was one femtomole=1×10^−15 moles placed in solution to a concentration of 1.0 nM=1.0 nanomoles/liter] of this duplex was then incubated at 37 degrees C. with increasing concentrations of the […] in a binding buffer containing 10 mM Tris, pH 7.5, 1 mM spermine, 20 mM KCl, and 10% sucrose, according to a published protocol. The DNA complexes—single-strand, double-strand, and triplex—were separated in a native polyacrylamide gel. Triplex DNA complex formation was detected at a triplex:duplex ratio of 10:1. Triplex formation was virtually complete at a triplex:duplex ratio of 100:1, corresponding to a triplex oligonucleotide concentration of 100 nM, consistent with other reports in the literature and below that believed to be achievable in vivo.

[8] = Systemic (intraperitoneal) delivery of Cy5-TFO-3 to mouse TG, fluorescence imaging; type: in vivo, Balb/c mice; conditions: 167 mcg intraperitoneal, 6 or 24 hours after injection
Experimental: Cy5-labeled TFO-3 (SEQ ID 2) was then synthesized and HPLC purified. 167 mcg of Cy5-TFO-3 (SEQ ID 2) was then systemically administered via an intraperitoneal injection into uninfected and latently infected Balb/c mice. The animals were sacrificed and dissected 6 or 24 hours after injection and the TG's imaged under a red laser light source (680 nm). An uninjected, uninfected mouse was also imaged as a control for autofluorescence (nil). Fluorescence of Cy5 was detectable in the TG's of Cy5-labeled TFO-3 (SEQ ID 2) treated mice.

[9] = Example 9, 1 μM, UVA 40 minutes
[10] = 0.5 nM starting concentration, +20 ng/ml NGF

In the case of `Nc1nc2c(ncn2COCCO)c(=O)[nH]1` [Acyclovir], the steady-state trough concentration [1] is given as 2 μg/ml and 8 μM.
For “TFO-1: purine motif triplex-forming oligonucleotide binding a target site in the HSV-1 LAT domain, SEQ ID 1 (GAAGAGGGGGGGGGGAAGAAG; DNA, backbone not given here)”, the antiviral effect [2, 9] was “no measurable antiviral effect”.
With “TFO-3: purine motif triplex-forming oligonucleotide binding a target site in the HSV-1 LAT domain, SEQ ID 2 (GGGAGGAGGGAGGGAAGGAGGGGG; further chemistry not given here)” the “viral titer as percent of the unirradiated virus only control” value (from here on “viral titer as percent”) ([2]; UVA 0 min) was “approximately 80%”, the “viral titer as percent” value ([2]; UVA 20 min) was “approximately 50%” and the “viral titer as percent” value ([2]; UVA 40 min) was roughly 30%. The “percent of virus only control viral titer” value ([2]; Example 7, strain 17 syn+, 1 μM, UVA 40 min) was “approximately 20%”, the “viral killing (plaque-reduction) added to that of UVA alone” value ([2]; Example 8, 1 μM, UVA 40 minutes) was 40% and the “reduction of viral titers” value [2, 9] was 45%. For the same compound, the “fluorescence in TG neurons” value [3] was “Intense red fluorescence”, the “average cellular oligonucleotide (32P) concentration” value [4, 10] was 95 nM and the “average oligonucleotide (32P) concentration in the supernatants” value [4, 10] was 0.44 nM. For the same compound, the “uptake into the neurons” value ([4]; 0.5 nM, 2, 6 or 24 hours) was “progressively taken up”, the luciferase production [5] was “did not inhibit” and the luciferase production [6] was “significantly inhibited”. The “TFO concentration at which triplex formation is virtually complete” value ([7]; 37 degrees C., target duplex 1.0 nM) was 100 nM and the “TFO concentration at which triplex formation begins” value ([7]; HSV-1 LAT target) was 10 nM.
For “Cy5-labeled TFO-3: TFO-3 (SEQ ID 2) labeled with Cy5, HPLC purified (GGGAGGAGGGAGGGAAGGAGGGGG; DNA, backbone not given here; Cy5 label attached, triplex-forming oligonucleotide, further chemistry not fully specified)”, the “fluorescence of Cy5 in the TG's” value [8] was “detectable”.
